Laboratory results reported in US20090226398A1, “ANTI-VIRAL COMPOUNDS, COMPOSITIONS, AND METHODS OF USE” (Genelabs Technologies, Inc., priority 2008, published 2009).

system: HCV replication; test: Replicon Assay (Huh-lucubineo-ET cells, luciferase readout); assay type: cell-based; conditions: Hepatitis C virus; ET (Huh-lucubineo-ET) HCV replicon cell line; luciferase activity 48-72 hours after compound addition; 6 dilutions
Outline: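 Huh-lucubineo-ET cells stably carrying a firefly luciferase-ubiquitin-neo/NS3-5B ET replicon (adaptive mutations E1202G, T1280I, K1846T) were plated 24 h before compound, then treated at 5 or 50 μM or six 3-fold dilutions. Luciferase read 48-72 h later; % inhibition vs no-compound control, EC50/TC50 from Hill-equation fit.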

`Fc1cccc(-c2nc3cnn(Cc4ccc5sccc5c4)cc-3n2)c1F` [Compound 284, 5-Benzothiophen-5-ylmethyl-2-(2,3-difluoro-phenyl)-5H-imidazo[4,5-d]pyridazine] and `Fc1cccc(-c2nc3cnn(Cc4ccc5ncccc5c4)cc-3n2)c1F` [Compound 302, 6-[2-(2,3-Difluoro-phenyl)-imidazo[4,5-d]pyridazin-5-ylmethyl]-quinoline] cannot be ordered by EC50: ≥ 50 µM for the first, ≥ 50 µM for the second.

Going from `O=[N+]([O-])c1ccc(-c2ccc(Cn3cc4nc(-c5cccc(F)c5F)nc-4cn3)cn2)c(C(F)(F)F)c1` [Compound 285, 2-(2,3-Difluoro-phenyl)-5-[6-(4-nitro-2-trifluoromethyl-phenyl)-pyridin-3-ylmethyl]-5H-imidazo[4,5-d]pyridazine] to `O=[N+]([O-])c1cc(C(F)(F)F)ccc1-c1ccc(Cn2cc3nc(-c4cccc(F)c4F)nc-3cn2)cn1` [Compound 286, 2-(2,3-Difluoro-phenyl)-5-[6-(2-nitro-4-trifluoromethyl-phenyl)-pyridin-3-ylmethyl]-5H-imidazo[4,5-d]pyridazine], the EC50 falls from 0.284 µM to 0.059 µM (4.8-fold). The second is the more potent here.

`COc1cccc(Cn2cc3nc(-c4cccc(F)c4F)nc-3cn2)c1` [Compound 287, 2-(2,3-Difluoro-phenyl)-5-(3-methoxy-benzyl)-5H-imidazo[4,5-d]pyridazine] and `Fc1cccc(-c2nc3cnn(Cc4cccc(OC(F)(F)F)c4)cc-3n2)c1F` [Compound 300, 2-(2,3-Difluoro-phenyl)-5-(3-trifluoromethoxy-benzyl)-5H-imidazo[4,5-d]pyridazine] cannot be ordered by EC50: ≥ 50 µM for the first, ≥ 50 µM for the second.

Compared with `COC(=O)c1cc(Cn2cc3nc(-c4cccc(F)c4F)nc-3cn2)ccc1-c1ccc(OC)cc1C(F)(F)F` [Compound 288, 4-[2-(2,3-Difluoro-phenyl)-imidazo[4,5-d]pyridazin-5-ylmethyl]-4′-methoxy-2′-trifluoromethyl-biphenyl-2-carboxylic acid methyl ester], `COc1ccc(-c2ccc(Cn3cc4nc(-c5cccc(F)c5F)nc-4cn3)c(OC)c2)c(C(F)(F)F)c1` [Compound 294, 2-(2,3-Difluoro-phenyl)-5-(3,4′-dimethoxy-2′-trifluoromethyl-biphenyl-4-ylmethyl)-5H-imidazo[4,5-d]pyridazine] is 2.4-fold higher in EC50: 0.2 µM for the first, 0.473 µM for the second.

`Fc1cccc(-c2nc3cnn(Cc4cccc(C(F)(F)F)c4)cc-3n2)c1F` [Compound 289, 2-(2,3-Difluoro-phenyl)-5-(3-trifluoromethyl-benzyl)-5H-imidazo[4,5-d]pyridazine] and `O=[N+]([O-])c1cccc(Cn2cc3nc(-c4cccc(F)c4F)nc-3cn2)c1` [Compound 290, 2-(2,3-Difluoro-phenyl)-5-(3-nitro-benzyl)-5H-imidazo[4,5-d]pyridazine] cannot be ordered by EC50: ≥ 50 µM for the first, ≥ 50 µM for the second.

`Fc1cccc(-c2nc3cnn(Cc4cccc(-n5cccn5)c4)cc-3n2)c1F` [Compound 291, 2-(2,3-Difluoro-phenyl)-5-(3-pyrazol-1-yl-benzyl)-5H-imidazo[4,5-d]pyridazine] and `Fc1cccc(-c2nc3cnn(Cc4ccc(-n5cccn5)cc4)cc-3n2)c1F` [Compound 308, 2-(2,3-Difluoro-phenyl)-5-(4-pyrazol-1-yl-benzyl)-5H-imidazo[4,5-d]pyridazine] cannot be ordered by EC50: ≥ 50 µM for the first, ≥ 50 µM for the second.

`Fc1cccc(-c2nc3cnn(Cc4cccc5ccccc45)cc-3n2)c1F` [Compound 292, 2-(2,3-Difluoro-phenyl)-5-naphthalen-1-ylmethyl-5H-imidazo[4,5-d]pyridazine] and `Fc1cccc(-c2nc3cnn(Cc4ccc(-c5ccccn5)cc4)cc-3n2)c1F` [Compound 299, 2-(2,3-Difluoro-phenyl)-5-(4-pyridin-2-yl-benzyl)-5H-imidazo[4,5-d]pyridazine] cannot be ordered by EC50: ≥ 50 µM for the first, ≥ 50 µM for the second.

`Fc1cccc(-c2nc3cnn(Cc4ccc(-c5cncnc5)cc4)cc-3n2)c1F` [Compound 293, 2-(2,3-Difluoro-phenyl)-5-(4-pyrimidin-5-yl-benzyl)-5H-imidazo[4,5-d]pyridazine] and `Cc1noc(-c2ccc(Cn3cc4nc(-c5cccc(F)c5F)nc-4cn3)cc2)n1` [Compound 313, 2-(2,3-Difluoro-phenyl)-5-[4-(3-methyl-[1,2,4]oxadiazol-5-yl)-benzyl]-5H-imidazo[4,5-d]pyridazine] cannot be ordered by EC50: ≥ 50 µM for the first, ≥ 50 µM for the second.

`CCCOc1ccc(-c2cnc(Cn3cc4nc(-c5cccc(F)c5F)nc-4cn3)cn2)c(C(F)(F)F)c1` [Compound 295, 2-(2,3-Difluoro-phenyl)-5-[5-(4-propoxy-2-trifluoromethyl-phenyl)-pyrazin-2-ylmethyl]-5H-imidazo[4,5-d]pyridazine] and `COc1ccc(-c2cnc(Cn3cc4nc(-c5cccc(F)c5F)nc-4cn3)cn2)c(C(F)(F)F)c1` [Compound 306, 2-(2,3-Difluoro-phenyl)-5-[5-(4-methoxy-2-trifluoromethyl-phenyl)-pyrazin-2-ylmethyl]-5H-imidazo[4,5-d]pyridazine] are within 1.5-fold of each other in EC50: 0.026 µM for the first, 0.023 µM for the second.

`CCCOc1ccc(-c2ccc(Cn3cc4nc(-c5cccc(F)c5F)nc-4cn3)nc2)c(C(F)(F)F)c1` [Compound 296, 2-(2,3-Difluoro-phenyl)-5-[5-(4-propoxy-2-trifluoromethyl-phenyl)-pyridin-2-ylmethyl]-5H-imidazo[4,5-d]pyridazine] and `CCCOc1ccc(-c2ccc(Cn3cc4nc(-c5ccccc5F)nc-4cn3)nn2)c(C(F)(F)F)c1` [Compound 316, 2-(2-Fluoro-phenyl)-5-[6-(4-propoxy-2-trifluoromethyl-phenyl)-pyridazin-3-ylmethyl]-5H-imidazo[4,5-d]pyridazine] are within 1.5-fold of each other in EC50: 0.023 µM for the first, 0.032 µM for the second.

Compared with `Fc1ccc(COc2ccc(Cn3cc4nc(-c5cccc(F)c5F)nc-4cn3)cc2)cc1` [Compound 297, 2-(2,3-Difluoro-phenyl)-5-[4-(4-fluoro-benzyloxy)-benzyl]-5H-imidazo[4,5-d]pyridazine], `Fc1cccc(-c2nc3cnn(Cc4ccc(Oc5ccccn5)cc4)cc-3n2)c1F` [Compound 314, 2-(2,3-Difluoro-phenyl)-5-[4-(pyridin-2-yloxy)-benzyl]-5H-imidazo[4,5-d]pyridazine] is higher in EC50: 5.74 µM for the first, ≥ 50 µM for the second. The first is the more potent here.

`Fc1cccc(-c2nc3cnn(Cc4ccc(-c5ccc(Br)c(C(F)(F)F)c5)nc4)cc-3n2)c1F` [Compound 298, 5-[6-(4-Bromo-3-trifluoromethyl-phenyl)-pyridin-3-ylmethyl]-2-(2,3-difluorophenyl)-5H-imidazo[4,5-d]pyridazine] and `Fc1cc(Cn2cc3nc(-c4cccc(F)c4F)nc-3cn2)ccc1Br` [Compound 309, 5-(4-Bromo-3-fluoro-benzyl)-2-(2,3-difluoro-phenyl)-5H-imidazo[4,5-d]pyridazine] cannot be ordered by EC50: ≥ 50 µM for the first, 61 µM for the second.

Compared with `Fc1cccc(-c2nc3cnn(Cc4cccc(-c5ccncc5)c4)cc-3n2)c1F` [Compound 301, 2-(2,3-Difluoro-phenyl)-5-(3-pyridin-4-yl-benzyl)-5H-imidazo[4,5-d]pyridazine], `O=[N+]([O-])c1cc(Cn2cc3nc(-c4cccc(F)c4F)nc-3cn2)ccc1Br` [Compound 311, 5-(4-Bromo-3-nitro-benzyl)-2-(2,3-difluoro-phenyl)-5H-imidazo[4,5-d]pyridazine] is 5.4-fold lower in EC50: 35 µM for the first, 6.54 µM for the second. The second is the more potent here.

First: Fc1cccc(-c2nc3cnn(Cc4ccc(N5CCOCC5)cc4)cc-3n2)c1F [Compound 303, 2-(2,3-Difluoro-phenyl)-5-(4-morpholin-4-yl-benzyl)-5H-imidazo[4,5-d]pyridazine]
Second: Fc1cccc(-c2nc3cnn(Cc4ccc(N5CCCCC5)cc4)cc-3n2)c1F [Compound 304, 2-(2,3-Difluoro-phenyl)-5-(4-piperidin-1-yl-benzyl)-5H-imidazo[4,5-d]pyridazine]
The EC50 of the first is 2.2-fold higher: 8.53 µM for the first, 3.87 µM for the second. The second is the more potent here.

First: CC(c1ccc(-c2ccc(C(F)(F)F)cc2C(F)(F)F)cn1)n1cc2nc(-c3cccc(F)c3F)nc-2cn1 (stereo not drawn) [Compound 305, 5-{1-[5-(2,4-Bis-trifluoromethyl-phenyl)-pyridin-2-yl]-ethyl}-2-(2,3-difluoro-phenyl)-5H-imidazo[4,5-d]pyridazine]
Second: CC(O)COc1ccc(-c2ccc(Cn3cc4nc(-c5cccc(F)c5F)nc-4cn3)nn2)c(C(F)(F)F)c1 (stereo not drawn) [Compound 319, 1-(4-{6-[2-(2,3-Difluoro-phenyl)-imidazo[4,5-d]pyridazin-5-ylmethyl]-pyridazin-3-yl}-3-trifluoromethyl-phenoxy)-propan-2-ol]
The EC50 of the first is 16-fold lower: 0.278 µM for the first, 4.52 µM for the second. The first is the more potent here.

`Fc1cccc(-c2nc3cnn(Cc4ccc(Cl)nn4)cc-3n2)c1F` [Compound 307, 5-(6-Chloro-pyridazin-3-ylmethyl)-2-(2,3-difluoro-phenyl)-5H-imidazo[4,5-d]pyridazine] and `COC(=O)c1cc(Br)ccc1Cn1cc2nc(-c3cccc(F)c3F)nc-2cn1` [Compound 312, 5-Bromo-2-[2-(2,3-difluoro-phenyl)-imidazo[4,5-d]pyridazin-5-ylmethyl]-benzoic acid methyl ester] cannot be ordered by EC50: ≥ 50 µM for the first, ≥ 50 µM for the second.

`COc1ccc(-c2ccc(Cn3cc4nc(-c5cccc(F)c5F)nc-4cn3)nc2[N+](=O)[O-])c(C(F)(F)F)c1` [Compound 310, 2-(2,3-Difluoro-phenyl)-5-[5-(4-methoxy-2-trifluoromethyl-phenyl)-6-nitro-pyridin-2-ylmethyl]-5H-imidazo[4,5-d]pyridazine] and `CC(=O)COc1ccc(-c2ccc(Cn3cc4nc(-c5cccc(F)c5F)nc-4cn3)nn2)c(C(F)(F)F)c1` [Compound 318, 1-(4-{6-[2-(2,3-Difluoro-phenyl)-imidazo[4,5-d]pyridazin-5-ylmethyl]-pyridazin-3-yl}-3-trifluoromethyl-phenoxy)-propan-2-one] are within 1.5-fold of each other in EC50: 0.762 µM for the first, 0.663 µM for the second.

Going from `CCOc1ccc(-c2ccc(Cn3cc4nc(-c5ccccc5F)nc-4cn3)nn2)c(C(F)(F)F)c1` [Compound 315, 5-[6-(4-Ethoxy-2-trifluoromethyl-phenyl)-pyridazin-3-ylmethyl]-2-(2-fluoro-phenyl)-5H-imidazo[4,5-d]pyridazine] to `COc1ccc(-c2ccc(Cn3cc4nc(-c5ccccc5F)nc-4cn3)nn2)c(C(F)(F)F)c1` [Compound 317, 2-(2-Fluoro-phenyl)-5-[6-(4-methoxy-2-trifluoromethyl-phenyl)-pyridazin-3-ylmethyl]-5H-imidazo[4,5-d]pyridazine], the EC50 rises from 0.02 µM to 0.064 µM (3.2-fold).
